According to patent publication US5214038A, “1-(pyrido[3,4-b]-1,4-oxazinyl-4-yl)-1H-indoles and intermediates for the preparation thereof” (priority 1991, dated 1993):
Where two headings read alike, the source gives them in different places.

How the values were obtained:
norepinephrine uptake = assay: 3H-Norepinephrine Uptake in Rat Whole Brain Synaptosomes; assay type: biochemical; conditions: 50 nM 3H-NE, 37° C., 5 minutes, read-out: IC50 (3H-norepinephrine uptake inhibition)
Description: ^3 H-Norepinephrine Uptake in Rat Whole Brain Synaptosomes
This assay is used as a biochemical screen for compounds that enhance adrenergic mechanism by blocking norepinephrine uptake.
A. Animals: Male CR Wistar rats (100-125 g).
1. Krebs-Henseleit Bicarbonate Buffer, pH 7.4 (KHBB). Make a 1 liter batch, containing the following salts.
2. 0.32M Sucrose: 21.9 g of sucrose, Q.S. to 200 ml.
3. A 0.1 mM stock solution of L(-)-Norepinephrine bitartrate is made up in 0.01N HCl. This is used to dilute the specific activity of radiolabeled NE.
4. Levo-[Ring-2,5,6-^3 H]-Norepinephrine (40-50 Ci/mmol) is obtained from New England Nuclear. The final desired concentration of ^3 H-NE in the assay is 50 nM. The dilution factor is 0.8; therefore the KHBB is made up to contain 62.5 nM [^3 H]-NE. Add to 100 ml of KHBB:
5. For most assays, a 1 mM stock solution of the test compound is made up in suitable solvent and serially diluted such that the final concentration in the assay ranges from 2×10^-8 to 2×10^-5 M. Seven concentrations are used for each assay. Higher or lower concentrations may be used depending on the potency of the test compound.
Male Wistar rats are decapitated and brains rapidly removed. Either whole brain minus cerebella or hypothalamus is weighed and homogenized in 9 volumes of ice-cold 0.32M sucrose using a Potter-Elvejhem homogenizer. Homogenization should be done with 4-5 up and down strokes at medium speeds to minimize synaptosome lysis. The homogenate is centrifuged at 1000 g for 10 min at 0°-4° C. The supernatant (S1) is decanted and is used for uptake experiments.
800 μl: KHBB containing [^3 H]-NE
20 μl: Vehicle or appropriate drug concentration
200 μl: Tissue suspension
Tubes are incubated at 37° C. under a 95% O2 /5% CO2 atmosphere for 5 minutes. For each assay, 3 tubes are incubated with 20 μl of vehicle at 0° C. in an ice bath. After incubation all tubes are immediately centrifuged at 4000 g for 10 minutes. […] The tubes are vigorously vortexed, decanted into scintillation vials, and counted in 10 ml of Liquiscint scintillation counting cocktail. […]

[1] = tested on: Scopolamine Induced Memory Deficit; assay type: in vivo, mice
Description: In this assay mice are tested for their ability to remember an unpleasant stimulus for a period of 24 hours. A mouse is placed in a chamber that contains a dark compartment; a strong incandescent light drives it to the dark compartment, where an electric shock is administered through metal plates on the floor. The animal is removed from the testing apparatus and tested again, 24 hours later, for the ability to remember the electric shock.
If scopolamine, an anticholinergic that is known to cause memory impairment, is administered before an animal's initial exposure to the test chamber, the animal re-enters the dark compartment shortly after being placed in the test chamber 24 hours later. This effect of scopolamine is blocked by an active test compound, resulting in a greater interval before-re-entry into the dark compartment.
The results for an active compound are expressed as the percent of a group of animals in which the effect of scopolamine is blocked, as manifested by an increased interval between being placed in the test chamber and re-entering the dark compartment.
Results of this assay for some of the compounds of this invention and those for tacrine and pilocarpine (reference compounds) are presented in Table 2.

[2] = target: T1, Brain AChE (acetylcholinesterase, rat striatum) (Rattus norvegicus, UniProt P37136); assay: biochemical; conditions: rat striatum homogenate; 5 mM acetylthiocholine; pH 7.2; 10 min preincubation at 37° C.; read-out: Inhibitory Concentration, Brain AChE
T1 construct: corpora striata dissected free, weighed and homogenized in 19 volumes; from tissue; host or cells: corpora striata of male Wistar rats, crude homogenate
T1 sequence (P37136 32-614): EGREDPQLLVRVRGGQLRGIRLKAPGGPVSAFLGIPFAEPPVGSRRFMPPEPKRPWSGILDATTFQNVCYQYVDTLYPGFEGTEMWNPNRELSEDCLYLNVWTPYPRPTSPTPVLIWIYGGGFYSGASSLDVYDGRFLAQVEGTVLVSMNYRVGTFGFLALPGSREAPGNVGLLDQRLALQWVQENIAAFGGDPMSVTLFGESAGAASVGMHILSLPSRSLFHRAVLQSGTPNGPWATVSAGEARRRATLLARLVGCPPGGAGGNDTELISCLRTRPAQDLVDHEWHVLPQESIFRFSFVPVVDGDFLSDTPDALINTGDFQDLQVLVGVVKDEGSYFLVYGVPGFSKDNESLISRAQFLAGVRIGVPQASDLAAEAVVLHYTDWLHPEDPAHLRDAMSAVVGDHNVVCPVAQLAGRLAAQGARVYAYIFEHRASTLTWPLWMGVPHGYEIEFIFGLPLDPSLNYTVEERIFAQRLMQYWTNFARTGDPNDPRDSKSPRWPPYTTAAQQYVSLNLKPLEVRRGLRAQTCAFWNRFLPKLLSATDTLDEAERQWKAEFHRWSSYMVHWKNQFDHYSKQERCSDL
From the text: Cholinesterases are found throughout the body, both in the brain and in serum. However, only brain acetylcholinesterase (AChE) distribution is correlated with central cholinergic innervation. […] We have determined in vitro inhibition of acetylcholinesterase activity in rat striatum according to the method described below.
In Vitro Inhibition of Acetylcholinesterase Activity in Rat Striatum
The method described below was used in this invention for assaying anticholinesterase activity. This is a modification of the method of Ellman et al., Biochem. Pharmacol. 7, 88 (1961).
1. 0.05M Phosphate buffer, pH 7.2
(a) 6.85 g NaH2 PO4 .cndot.H2 O/100 ml distilled H2 O
(c) add (a) to (b) until pH reaches 7.2
4. A 2 mM stock solution of the test drug is made up in a suitable solvent and q.s. to volume with 0.5 mM DTNB (reagent 3). Drugs are serially diluted (1:10) such that the final concentration (in cuvette) is 10^-4 M and screened for activity. If active, IC50 values are determined from the inhibitory activity of subsequent concentrations.
Enzyme activity is measured with the Beckman DU-50 spectrophotometer. This method can be used for IC50 determinations and for measuring kinetic constants.
This program also calculates the rate of absorbance change for each cuvette.
Substrate concentration is 10 mM diluted 1:2 in assay yielding final concentration of 5 mM.

SMILES: CN(C)CCC=C1c2ccccc2CCc2ccccc21 [Amitriptyline]
- IC50 (norepinephrine uptake): 7.7 µM

SMILES: CNC(=O)Oc1ccc2c(ccn2N2CCOc3cnccc32)c1 [1-(Pyrido-[3,4-b]-1,4-oxazin-4-yl)-1H-indol'-5-yl methylcarbamate]
- % of Animals with Scopolamine Induced Memory Deficit Reversal ([1]; mice, 0.01 mg/kg of body weight, s.c., retest 24 hours): 27%
- % of Animals with Scopolamine Induced Memory Deficit Reversal ([1]; mice, 0.03 mg/kg of body weight, s.c., retest 24 hours): 20%
- % of Animals with Scopolamine Induced Memory Deficit Reversal ([1]; mice, 0.10 mg/kg of body weight, s.c., retest 24 hours): 33%
- IC50 [2]: 0.054 µM

SMILES: Nc1c2c(nc3ccccc13)CCCC2 [Tacrine, reference compound]
- % of Animals with Scopolamine Induced Memory Deficit Reversal ([1]; mouse, in vivo, sc, 0.63 mg/kg): 13%

SMILES: CC[C@@H]1C(=O)OC[C@@H]1Cc1cncn1C [Pilocarpine, reference compound]
- % of Animals with Scopolamine Induced Memory Deficit Reversal ([1]; mice, 5.0 mg/kg of body weight, s.c., retest 24 hours): 13%

SMILES: Cc1cn(N2CCOc3cnccc32)c2ccccc12 [4-(3-Methyl-1H-indol-1-yl)-pyrido[3,4-b]-1,4-oxazine]
- IC50 (norepinephrine uptake): 6 µM

SMILES: CNCCC=C1c2ccccc2CCc2ccccc21 [Nortriptyline]
- IC50 (norepinephrine uptake): 4 µM
